According to ChEMBL document CHEMBL1152998, “Structure-based virtual screening approach to identify novel classes of PTP1B inhibitors” (Eur J Med Chem, 2009):

Target: T1, Tyrosine-protein phosphatase non-receptor type 1 (Homo sapiens, UniProt P18031)
T1 sequence (P18031 whole entry): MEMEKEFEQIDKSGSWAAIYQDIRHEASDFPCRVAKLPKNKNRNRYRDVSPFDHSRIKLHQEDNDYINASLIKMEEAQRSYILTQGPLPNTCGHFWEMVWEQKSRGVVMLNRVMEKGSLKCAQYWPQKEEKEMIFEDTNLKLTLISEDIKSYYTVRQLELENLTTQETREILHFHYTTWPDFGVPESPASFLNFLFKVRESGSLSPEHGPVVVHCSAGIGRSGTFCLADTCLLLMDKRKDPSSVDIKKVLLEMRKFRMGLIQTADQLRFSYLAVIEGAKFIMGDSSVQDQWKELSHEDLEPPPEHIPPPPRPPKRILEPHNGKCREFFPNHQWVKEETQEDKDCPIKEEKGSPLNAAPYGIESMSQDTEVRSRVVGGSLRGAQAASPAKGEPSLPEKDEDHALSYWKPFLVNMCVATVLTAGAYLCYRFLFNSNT
Assay: Inhibition of PTP1B by pNPP hydrolase assay

Q: With `O=C(O)c1cc(-c2ccc(/C=C3\NC(=O)N(c4ccccc4)C3=O)o2)ccc1Cl` as the compound, how does the IC50 read?
A: 34 µM

Q: With `O=C(O)c1ccc(Nc2cc3ccccc3cc2NS(=O)(=O)c2ccc(F)cc2)cc1` as the compound, how does the IC50 read?
A: 41 µM

Q: How did the IC50 turn out when `N#C/C(=C\c1ccc(-c2ccccc2C(=O)O)o1)C(=O)Nc1ccc2ccccc2c1` was run?
A: 27 µM

Q: Which IC50 does the source give for `O=C(O)c1cccc(-c2ccc(-c3nc4sc5c(c4c(=O)[nH]3)CCCC5)o2)c1` here?
A: 25 µM

Q: For `O=C1NC(=O)/C(=C\c2ccc(OCc3ccc(F)cc3)c(Br)c2)S1`, which IC50 is on record?
A: 11 µM

Q: Which IC50 does the source give for `O=C1ON=C(c2ccccc2)/C1=C\c1ccccc1OCc1ccccc1Cl` here?
A: 22 µM

Q: How did the IC50 turn out when `CCOc1ccc(-c2csc(C(C#N)CNc3ccc4oc(=O)ccc4c3)n2)cc1` (centres undefined) was run?
A: 28 µM

Q: How did the IC50 turn out when `O=C1NC(=O)N(c2ccccc2)C(=O)/C1=C\c1cn(Cc2cccc3ccccc23)c2ccccc12` was run?
A: 12 µM

Q: Which IC50 does the source give for `COc1cc(C)ccc1OCCn1cccc1/C=C1\C(=O)NC(=O)N(c2ccc(C)c(Cl)c2)C1=O` here?
A: 35 µM
